“And” between values parts separate entries of the source, which are not always exact repeats. Equal entries are not always repeated. Where two headings read alike, the source gives them in different places.
Target: factor Xa (Homo sapiens, UniProt P00742)
Conditions: for difference in reflectance units for the minimum and maximum concentration: 0 ng/mL vs. 1500 ng/mL, native urine; for intensity, mean, Laura Smart No. 1 / intensity, mean, Laura Smart No. 2 / intensity, mean, Laura Smart No. 3 / intensity, mean, all readers / intensity, single, Laura Smart No. 1 / intensity, single, Laura Smart No. 2 / intensity, single, Laura Smart No. 3: 380 nm
Excerpt: Using a modified reflectance photometer, hereinafter also referred to as reader (Laura Smart (LS), ERBA Lachema), native urine samples were investigated using excitation light having either a wavelength of 380 nm or a wavelength of 470 nm. Herein, the samples under investigation contained the direct factor Xa inhibitor rivaroxaban or the direct thrombin inhibitor dabigatran. For each anticoagulant, samples with different concentrations were provided.
Test strips were used on which both the blood clotting factor (factor Xa or thrombin) and the respective chromogenic substrate conjugated to a detectable substance were immobilized, i.e. N-benzoyl-L-isoleucyl-L-glutamyl-L-glycyl-L-arginine-para-nitroaniline (SEQ ID NO:1) together with factor Xa, and N-(para-tosyl)-glycyl-L-prolyl-L-arginine-para-nitroanilide acetate together with thrombin. After dipping the test strip into the urine sample to be investigated for 2 to 3 seconds, incubation was allowed for 10 min. Then, the test strip was inserted into the reader. In total, three different readers (“Laura No. 1”, “Laura No. 2”, and “Laura No. 3”) were used in order to check for any device-specific issues.
In order to suppress fluorescence light which might originate from the released detestable substance (para-nitroaniline), a UV band-pass filter was used made of UG11 glass (Schott AG).
For each single measurement, an intensity value was put out by the respective reader, given in reflectance units (% REM). Each of the readers was able to split up the measured intensity into 1000 increments.
Generally, the higher the concentration of the anticoagulant in the sample, the less detectable substance is released from the chromogenic substrate by the corresponding blood dotting factor. Accordingly, in case of a high concentration of the anticoagulant, the absorption by the sample is low while the reflectance by the sample is high. In order to reliably evaluate the presence or absence of the anticoagulant in the sample, as a general rule, a low concentration of the anticoagulant in the sample should result in a % REM value as low as possible, while a high concentration of the anticoagulant in the sample should result in a % REM value as high as possible. In other words, the difference in reflectance units for the minimum and maximum concentration of the anticoagulant should be as large as possible.

[1] = rivaroxaban 100 ng/mL in native urine
[2] = rivaroxaban 200 ng/mL in native urine
[3] = rivaroxaban 400 ng/mL in native urine
[4] = rivaroxaban 1500 ng/mL in native urine

Sequence of factor Xa (P00742 235-488 limits assumed): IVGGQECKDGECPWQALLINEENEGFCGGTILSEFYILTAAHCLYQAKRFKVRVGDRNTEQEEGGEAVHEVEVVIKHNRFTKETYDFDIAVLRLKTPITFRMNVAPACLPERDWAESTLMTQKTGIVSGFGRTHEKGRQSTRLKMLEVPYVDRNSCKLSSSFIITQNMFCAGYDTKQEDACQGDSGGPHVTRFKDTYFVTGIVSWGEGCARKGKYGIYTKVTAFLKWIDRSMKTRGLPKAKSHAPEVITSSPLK
Sequence of factor Xa (P00742 41-179 partner limits assumed): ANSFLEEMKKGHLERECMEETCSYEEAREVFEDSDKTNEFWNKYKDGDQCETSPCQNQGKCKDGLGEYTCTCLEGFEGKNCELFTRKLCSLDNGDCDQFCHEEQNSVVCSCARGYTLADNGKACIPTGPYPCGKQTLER

## O=C(NC[C@H]1CN(c2ccc(N3CCOCC3=O)cc2)C(=O)O1)c1ccc(Cl)s1 [rivaroxaban]
Excitation light 380 nm
  difference in reflectance units for the minimum and maximum concentration: about 400 % REM
Excitation light 470 nm
  difference in reflectance units for the minimum and maximum concentration: about 200 % REM
Dark urine samples, excitation light 380 nm
  change of the measured intensity with concentration: possible to observe a change of the measured intensity with the concentration
[1]
  intensity, mean, Laura Smart No. 1: 181 % REM
  intensity, mean, Laura Smart No. 2: 194 % REM
  intensity, mean, Laura Smart No. 3: 199 % REM
  intensity, mean, all readers: 191 % REM
  intensity, single, Laura Smart No. 1: 192 % REM and 159 % REM and 193 % REM
  intensity, single, Laura Smart No. 2: 194 % REM and 191 % REM and 196 % REM
  intensity, single, Laura Smart No. 3: 202 % REM and 196 % REM and 199 % REM
[2]
  intensity, mean, Laura Smart No. 1: 276 % REM
  intensity, mean, Laura Smart No. 2: 266 % REM
  intensity, mean, Laura Smart No. 3: 315 % REM
  intensity, mean, all readers: 286 % REM
  intensity, single, Laura Smart No. 1: 254 % REM and 336 % REM and 238 % REM
  intensity, single, Laura Smart No. 2: 279 % REM and 265 % REM and 253 % REM
  intensity, single, Laura Smart No. 3: 304 % REM and 342 % REM and 299 % REM
[3]
  intensity, mean, Laura Smart No. 1: 387 % REM
  intensity, mean, Laura Smart No. 2: 425 % REM
  intensity, mean, Laura Smart No. 3: 387 % REM
  intensity, mean, all readers: 400 % REM
  intensity, single, Laura Smart No. 1: 346 % REM and 406 % REM and 409 % REM
  intensity, single, Laura Smart No. 2: 431 % REM and 413 % REM
  intensity, single, Laura Smart No. 3: 423 % REM and 411 % REM and 326 % REM
[4]
  intensity, mean, Laura Smart No. 1: 542 % REM
  intensity, mean, Laura Smart No. 2: 518 % REM
  intensity, mean, Laura Smart No. 3: 496 % REM
  intensity, mean, all readers: 519 % REM
  intensity, single, Laura Smart No. 1: 537 % REM and 528 % REM and 560 % REM
  intensity, single, Laura Smart No. 2: 588 % REM and 468 % REM and 499 % REM
  intensity, single, Laura Smart No. 3: 501 % REM and 510 % REM and 476 % REM
